From ChEMBL document CHEMBL5724914, “Linking interpersonal differences in gut microbiota composition and drug biotransformation activity” (2024)

Legend:
[1] = (§1) The drug is tested on WLS-006 corresponding to human gut metagenome with ENA study accession number: PRJEB37062 and ENA sample accession number: ERS12561741 for biotransformation under anaerobic condition. The drug concentrations were measured over 9 timepoints collected between 0 and 24 hours of incubation by liquid-chromatography-coupled mass spectrometry (LC–MS); conditions: 2 µM
[2] = human gut metagenome, 24 h, 2 µM
[3] = as §1, with “WLS-069” for “WLS-006”, “ERS12561748” for “ERS12561741”; conditions: 2 µM
[4] = human gut metagenome, 24 h, 2 µM; remark: listed apart in the source
[5] = as §1, with “Z-013” for “WLS-006”, “rabbit” for “human”, “ERS12561813” for “ERS12561741”; conditions: 2 µM
[6] = as §1, with “WLS-010” for “WLS-006”, “ERS12561743” for “ERS12561741”; conditions: 2 µM
[7] = as §1, with “Z-020” for “WLS-006”, “rabbit” for “human”, “ERS12561819” for “ERS12561741”; conditions: 2 µM
[8] = human gut metagenome, 24 h, 2 µM; remark: listed apart in the source
[9] = as §1, with “Z-025” for “WLS-006”, “rabbit” for “human”, “ERS12561824” for “ERS12561741”; conditions: 2 µM
[10] = human gut metagenome, 24 h, 2 µM; remark: listed apart in the source
[11] = as §1, with “WLS-098” for “WLS-006”, “ERS12561754” for “ERS12561741”; conditions: 2 µM
[12] = human gut metagenome, 24 h, 2 µM; remark: listed apart in the source
[13] = human gut metagenome, 24 h, 2 µM; remark: listed apart in the source
[14] = as §1, with “Z-028” for “WLS-006”, “mouse” for “human”, “ERS12561827” for “ERS12561741”; conditions: 2 µM
[15] = as §1, with “Z-003” for “WLS-006”, “pig” for “human”, “ERS12561803” for “ERS12561741”; conditions: 2 µM
[16] = as §1, with “Z-021” for “WLS-006”, “to” for “to human gut”, “ERS12561820” for “ERS12561741”; conditions: 2 µM
[17] = human gut metagenome, 24 h, 2 µM; remark: listed apart in the source
[18] = as §1, with “Z-006” for “WLS-006”, “mouse” for “human”, “ERS12561806” for “ERS12561741”; conditions: 2 µM
[19] = human gut metagenome, 24 h, 2 µM; remark: listed apart in the source
[20] = human gut metagenome, 24 h, 2 µM; remark: listed apart in the source
Further: call rule not given here.

SMILES	Bacterial Biotransformation [1]	Bacterial Biotransformation [2]	Bacterial Biotransformation [3]	Bacterial Biotransformation [4]	Bacterial Biotransformation [5]	Bacterial Biotransformation [6]	Bacterial Biotransformation [7]	Bacterial Biotransformation [8]	Bacterial Biotransformation [9]	Bacterial Biotransformation [10]	Bacterial Biotransformation [11]	Bacterial Biotransformation [12]	Bacterial Biotransformation [13]	Bacterial Biotransformation [14]	Bacterial Biotransformation [15]	Bacterial Biotransformation [16]	Bacterial Biotransformation [17]	Bacterial Biotransformation [18]	Bacterial Biotransformation [19]	Bacterial Biotransformation [20]
O=C(O)COCCN1CCN(C(c2ccccc2)c2ccc(Cl)cc2)CC1 (stereo not given) [CETIRIZINE]	Compound metabolized	Compound metabolized	Compound metabolized	Compound metabolized	Compound NOT metabolized	Compound metabolized	Compound NOT metabolized	Compound metabolized	Compound NOT metabolized	Compound metabolized	Compound metabolized	Compound metabolized	Compound metabolized	Compound NOT metabolized	Compound metabolized	Compound metabolized	Compound metabolized	Compound NOT metabolized	Compound metabolized	Compound metabolized
CN/C(=N/CCSCc1nc[nH]c1C)NC#N [CIMETIDINE]	Compound metabolized	Compound metabolized	Compound metabolized	Compound NOT metabolized	Compound NOT metabolized	Compound metabolized	Compound NOT metabolized	Compound NOT metabolized	Compound NOT metabolized	Compound NOT metabolized	Compound metabolized	Compound NOT metabolized	Compound metabolized	Compound NOT metabolized	Compound NOT metabolized	Compound NOT metabolized	Compound metabolized	Compound NOT metabolized	Compound NOT metabolized	Compound NOT metabolized
Br.CN(C)CCCC1(c2ccc(F)cc2)OCc2cc(C#N)ccc21 (stereo not given) [CITALOPRAM HYDROBROMIDE]	Compound metabolized	Compound metabolized	Compound metabolized	Compound NOT metabolized	Compound NOT metabolized	Compound NOT metabolized	Compound NOT metabolized	Compound metabolized	Compound NOT metabolized	Compound NOT metabolized	Compound metabolized	Compound metabolized	Compound metabolized	Compound NOT metabolized	Compound NOT metabolized	Compound NOT metabolized	Compound NOT metabolized	Compound NOT metabolized	Compound NOT metabolized	Compound NOT metabolized
CN(C)CCC=C1c2ccccc2C=Cc2ccccc21 [CYCLOBENZAPRINE]	Compound metabolized	Compound metabolized	Compound metabolized	Compound metabolized	Compound NOT metabolized	Compound metabolized	Compound NOT metabolized	Compound NOT metabolized	Compound metabolized	Compound metabolized	Compound metabolized	Compound metabolized	Compound metabolized	Compound NOT metabolized	Compound metabolized	Compound metabolized	Compound metabolized	Compound NOT metabolized	Compound NOT metabolized	Compound NOT metabolized
O=C(Nc1ccccc1)OCC(CN1CCCCC1)OC(=O)Nc1ccccc1 (stereo not given) [DIPERODON]	Compound NOT metabolized	Compound metabolized	Compound metabolized	Compound metabolized	Compound NOT metabolized	Compound metabolized	Compound NOT metabolized	Compound NOT metabolized	Compound metabolized	Compound NOT metabolized	Compound metabolized	Compound NOT metabolized	Compound NOT metabolized	Compound NOT metabolized	Compound metabolized	Compound NOT metabolized	Compound metabolized	Compound NOT metabolized	Compound NOT metabolized	Compound NOT metabolized
CC(C)N(CCC(C(N)=O)(c1ccccc1)c1ccccn1)C(C)C.O=P(O)(O)O (stereo not given) [DISOPYRAMIDE PHOSPHATE]	Compound metabolized	Compound metabolized	Compound NOT metabolized	Compound NOT metabolized	Compound NOT metabolized	Compound NOT metabolized	Compound NOT metabolized	Compound NOT metabolized	Compound NOT metabolized	Compound NOT metabolized	Compound metabolized	Compound NOT metabolized	Compound NOT metabolized	Compound NOT metabolized	Compound NOT metabolized	Compound NOT metabolized	Compound NOT metabolized	Compound NOT metabolized	Compound NOT metabolized	Compound NOT metabolized
C[C@@H](CO)NC(=O)[C@@H]1C=C2c3cccc4[nH]cc(c34)C[C@H]2N(C)C1.O=C(O)/C=C\C(=O)O [ERGONOVINE MALEATE]	Compound metabolized	Compound metabolized	Compound metabolized	Compound metabolized	Compound NOT metabolized	Compound metabolized	Compound NOT metabolized	Compound NOT metabolized	Compound NOT metabolized	Compound metabolized	Compound NOT metabolized	Compound metabolized	Compound metabolized	Compound NOT metabolized	Compound NOT metabolized	Compound NOT metabolized	Compound metabolized	Compound NOT metabolized	Compound metabolized	Compound metabolized
CCN(CC)C(C)CN1c2ccccc2Sc2ccccc21 (stereo not given) [ETHOPROPAZINE]	Compound metabolized	Compound metabolized	Compound metabolized	Compound metabolized	Compound NOT metabolized	Compound metabolized	Compound NOT metabolized	Compound metabolized	Compound NOT metabolized	Compound metabolized	Compound metabolized	Compound metabolized	Compound metabolized	Compound NOT metabolized	Compound metabolized	Compound metabolized	Compound metabolized	Compound NOT metabolized	Compound metabolized	Compound metabolized
